We go through one compound from patent US20030171307A1, “Azalide antibiotic compositions” (Pfizer Inc., priority 2001, published 2003).

SMILES strings stand for the structures.

This data set is described as follows: Equilibration of azalide isomers I and II in heated aqueous acid, HPLC (Table 1). As to conditions: isomer I prior to equilibration, for comparison. The data set is classed as physicochemical.

Take `CCCNC[C@]1(O)[C@H](C)O[C@@H](O[C@H]2[C@H](C)[C@@H](OC3O[C@H](C)C[C@H](N(C)C)[C@H]3O)C(C)(O)C[C@@H](C)CN[C@H](C)[C@@H](O)[C@](C)(O)[C@@H](CC)OC(=O)[C@@H]2C)C[C@@]1(C)OC` (single isomer, unassigned) [isomer I]: the “% Equilibrium mixture of isomers” value is on record as 98.39% and the “% Impurities” value is 1.61%.
